Six compounds from PubChem BioAssay AID2060353 (Molecular Pharmacology Branch, DTP, NCI, 2025) can be followed below.

“And” between values parts separate entries of the source, which are not always exact repeats. Equal values may be shown once. Some results are limits rather than exact numbers.

The assay relates to 521955-158-R2-J5-PDC spheroids with stroma, growth inhibition. The experiment in a line: Anticancer human tumor 521955-158-R2-J5-PDC patient-derived pancreatic carcinoma cell line growth inhibition [TAK]. To be noted: for viability, T/C: stronger effect = lower value. From the text:
Combinatorial screen of targeted agents with TAK-243 and ipatasertib in multi-cell type tumor spheroids
A high-throughput screen of multi-cell type tumor spheroids was designed to identify active combinations of targeted small molecules and TAK-243 or ipatasertib. Complex spheroids include a stromal component modeled by human endothelial cells (HUVEC) and fibroblasts modeled by human mesenchymal stem cells (MSCs). The concentration ranges selected for each drug and investigational agent were based upon clinically achievable concentrations if the clinical Cmax of the agent was known.
Compounds. The drugs and investigational agents: TAK-243 (785004), ipatasertib (767898), everolimus (733504), selumetinib (741078), bortezomib (756655), trametinib (758246), ixazomib (758254), vemurafenib (761431), dabrafenib (764134), sapanisertib (764658), alpelisib (765974), and copanlisib (816437), were obtained from the National Cancer Institute (NCI) Developmental Therapeutics Program Chemical Repository. The FDA-approved anticancer drug set is available from the NCI Developmental Therapeutics Program. […] The stock solutions were prepared in dimethyl sulfoxide (DMSO, Sigma-Aldrich, St. Louis, MO, cat. D2650) at 800-fold the tested concentration and stored at -70 degrees C prior to their use. All drugs and investigational agents were tested over a range starting from a high concentration at or near the clinical Cmax and decreasing in half-log increments. If the clinical Cmax for an agent had not been determined, the highest concentration tested was 10 microM.
NCI60 Cell Culture. NCI60 cell lines were obtained from the NCI Developmental Therapeutics Program Tumor Repository. For each lot of cells, the Repository performed Applied Biosystems AmpFLSTR Identifiler testing with PCR amplification to confirm consistency with the published Identifier STR profile for each cell line. Cells were kept in continuous culture for no more than 20 passages. The optimal seeding densities for each of the cell lines at each time point assessed were determined prior to performing the concentration response studies. Briefly, the NCI60 human tumor lines were grown as monolayers in RPMI 1640 medium supplemented with 10% FBS and 2 mmol/L L-glutamine.
An additional 2 lines were from the NCI60 cell line panel including melanomas, MALME-3M and SK-MEL-2. Pooled donor human umbilical vein endothelial cells (HUVEC, Lonza, cat. CC-2519) and human mesenchymal stem cells (hMSC, Lonza, cat. PT-2501) were purchased from Lonza (Walkersville, MD).
PDMR cell lines were grown in complete medium (DC medium): Dulbecco's modified Eagle's medium (DMEM)/F12 supplemented with 5% fetal bovine serum (FBS), 2 mM L-glutamine, 100 U/mL penicillin and 100 µg/ml streptomycin, 0.4 µg/ml hydrocortisone, 10 ng/ml epidermal growth factor (EGF) recombinant human protein, 24 µg/mL adenine, and 0.1 mg/mL primocin. During culture from frozen stock vials, PDMR cells were cultured in the same medium containing 10 µM Y-27632 (see Table 3). The PDCs were cultured in complete DMEM/F12 media without 10 microM Y-27632 dihydrochloride for at least two passages prior to the screen. The pooled donor HUVEC and hMSC were cultured in endothelial cell growth medium 2 (PromoCell, Heidelberg, Germany, cat. C-22011) and mesenchymal stem cell growth medium 2 (PromoCell, cat. C-28009), respectively. For all experiments, HUVEC and hMSC were used at passages </=5.
For the pre-screen, cell seeding densities were determined from a titration spanning the range from 5,000 to 313 cells per well. The mct-spheroids including 60% malignant cells, 25% HUVEC and 15% MSC dispensed as a mixture into U-bottom Ultra-Low Attachment 384-well plates (Corning, NY)
High-throughput Drug Combination Screening.
Prior to their inoculation into 384-well plates, malignant cells, HUVEC, and hMSC were removed from T flasks using TrypLE express (Thermo Fisher Scientific, cat. 12605036) and harvested by centrifugation for 5 min at 233 x g. […]

[1] abbreviates: curve of first compound, second compound 0.3 µM.
The mark [2] stands for this setting: curve of first compound, second compound 0.949 µM.
The mark [3] stands for this setting: curve of first compound, second compound 3 µM.
Where [4] appears, read: curve of first compound, second compound 9.49 µM.
[5] abbreviates: curve of first compound, second compound 30 µM.
The mark [6] stands for this setting: second compound 0.3 µM, first compound 0.00316 µM.
Setting [7] is: second compound 0.3 µM, first compound 0.01 µM.
The mark [8] stands for this setting: second compound 0.3 µM, first compound 0.0316 µM.
The mark [9] stands for this setting: second compound 0.3 µM, first compound 0.1 µM.
Setting [10] is: second compound 0.949 µM, first compound 0.00316 µM.
Where [11] appears, read: second compound 0.949 µM, first compound 0.01 µM.
Where [12] appears, read: second compound 0.949 µM, first compound 0.0316 µM.
The mark [13] stands for this setting: second compound 0.949 µM, first compound 0.1 µM.
Setting [14] is: second compound 3 µM, first compound 0.00316 µM.
Where [15] appears, read: second compound 3 µM, first compound 0.01 µM.
Where [16] appears, read: second compound 3 µM, first compound 0.0316 µM.
[17] abbreviates: second compound 3 µM, first compound 0.1 µM.
Where [18] appears, read: second compound 9.49 µM, first compound 0.00316 µM.
Setting [19] is: second compound 9.49 µM, first compound 0.01 µM.
Where [20] appears, read: second compound 9.49 µM, first compound 0.0316 µM.
The mark [21] stands for this setting: second compound 9.49 µM, first compound 0.1 µM.
The mark [22] stands for this setting: second compound 30 µM, first compound 0.00316 µM.
The mark [23] stands for this setting: second compound 30 µM, first compound 0.01 µM.
[24] abbreviates: second compound 30 µM, first compound 0.0316 µM.
[25] abbreviates: second compound 30 µM, first compound 0.1 µM.
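Note: spheroids exposed to drugs for seven days before readout.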
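Throughout, for viability, T/C: 100% = DMSO vehicle control viability.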

Regarding `COc1c(OCCCN2CCOCC2)ccc2c3n(c(=NC(=O)c4cnc(N)nc4)nc12)CCN3` + CC(C)NCC(C(=O)N1CCN(c2ncnc3c2C(C)CC3O)CC1)c1ccc(Cl)cc1, the IC50 was 18.5 nM under setting [1]; 5.05 nM under setting [2]; < 3.16 nM under setting [3]; < 3.16 nM under setting [4]; < 3.16 nM under setting [5]. Further, the viability, T/C reads like this: under setting [6], 69.3%; under setting [7], 60.2%; under setting [8], 40.2%; under setting [9], 25.3%; (second compound 0.3 µM, first compound 0.316 µM) 7.66%; (second compound 0.3 µM, first compound 1 µM) 7.14%. Besides, the viability, T/C runs as follows: under setting [10], 51%; under setting [11], 48.7%; under setting [12], 31.4%; under setting [13], 15.8%; (second compound 0.949 µM, first compound 0.316 µM) 8.04%; (second compound 0.949 µM, first compound 1 µM) 7.27%. In addition, the viability, T/C was 41% under setting [14]; 28% under setting [15]; 17.3% under setting [16]; 10.1% under setting [17]; 7.86% (second compound 3 µM, first compound 0.316 µM); 7.56% (second compound 3 µM, first compound 1 µM). For the same compound, the viability, T/C by setting is: under setting [18], 23.8%; under setting [19], 16.5%; under setting [20], 12.8%; under setting [21], 8.78%; (second compound 9.49 µM, first compound 0.316 µM) 7.47%; (second compound 9.49 µM, first compound 1 µM) 7.49%. The viability, T/C under setting [22] is 19.2%; the viability, T/C under setting [23] was 13.1%; the viability, T/C under setting [24] is 8.7%; the viability, T/C under setting [25] was 7.22%; the viability, T/C (second compound 30 µM, first compound 0.316 µM) is 6.67%; the viability, T/C (second compound 30 µM, first compound 1 µM) is 5.5%.
Take `CC(C)(C)c1nc(-c2cccc(NS(=O)(=O)c3c(F)cccc3F)c2F)c(-c2ccnc(N)n2)s1`: the viability, T/C (compound 0.0316 µM) was 102% and 112%; the viability, T/C (compound 0.1 µM) was 112% and 117%; the viability, T/C (compound 0.316 µM) is 140% and 170%; the viability, T/C (compound 1 µM) was 160% and 186%; the viability, T/C (compound 3.16 µM) was 114% and 125%; the viability, T/C (compound 10 µM) is 88.9% and 92.2%. Further, the 50% inhibitory concentration (IC50) (curve of compound) is > 10000 nM.
On to `COC1CC2CCC(C)C(O)(O2)C(=O)C(=O)N2CCCCC2C(=O)OC(C(C)CC2CCC(OCCO)C(OC)C2)CC(=O)C(C)C=C(C)C(O)C(OC)C(=O)C(C)CC(C)C=CC=CC=C1C` (stereo unspecified) + CC(C)NCC(C(=O)N1CCN(c2ncnc3c2C(C)CC3O)CC1)c1ccc(Cl)cc1, for which the 50% inhibitory concentration (IC50) runs as follows: under setting [1], > 100 nM; under setting [2], > 100 nM; under setting [3], > 100 nM; under setting [4], > 100 nM; under setting [5], < 0.316 nM. Also, the viability, T/C (second compound 0.3 µM, first compound 0.000316 µM) is 118%; the viability, T/C (second compound 0.3 µM, first compound 0.001 µM) was 95.9%; the viability, T/C under setting [6] is 77.3%; the viability, T/C under setting [7] is 76%; the viability, T/C under setting [8] is 82.4%; the viability, T/C under setting [9] is 65.5%. Further, the viability, T/C is 79.4% (second compound 0.949 µM, first compound 0.000316 µM); 75.1% (second compound 0.949 µM, first compound 0.001 µM); 79.8% under setting [10]; 79.7% under setting [11]; 89% under setting [12]; 86.7% under setting [13]. Besides, the viability, T/C reads like this: (second compound 3 µM, first compound 0.000316 µM) 97.8%; (second compound 3 µM, first compound 0.001 µM) 98.3%; under setting [14], 93.9%; under setting [15], 80.9%; under setting [16], 75.7%; under setting [17], 76.2%. The viability, T/C (second compound 9.49 µM, first compound 0.000316 µM) was 78.3%; the viability, T/C (second compound 9.49 µM, first compound 0.001 µM) was 84.5%; the viability, T/C under setting [18] was 78.6%; the viability, T/C under setting [19] was 68.3%; the viability, T/C under setting [20] is 60.9%; the viability, T/C under setting [21] is 60.6%. Further, the viability, T/C is 46.4% (second compound 30 µM, first compound 0.000316 µM); 42.2% (second compound 30 µM, first compound 0.001 µM); 33.8% under setting [22]; 26.7% under setting [23]; 31.2% under setting [24]; 32.4% under setting [25].
Regarding `CC(C)NCC(C(=O)N1CCN(c2ncnc3c2C(C)CC3O)CC1)c1ccc(Cl)cc1` (stereo unspecified), the viability, T/C was 101% [middle of 10 runs] (compound 0.3 µM), 81.5% [middle of 10 runs] (compound 0.949 µM), 82.7% [middle of 10 runs] (compound 3 µM) and 56.5% [middle of 10 runs] (compound 30 µM). Moreover, the IC50 (compound alone, run of 02/20/2020) is > 30000 nM.
Take `CCCS(=O)(=O)Nc1ccc(F)c(C(=O)c2c[nH]c3ncc(-c4ccc(Cl)cc4)cc23)c1F`: the viability, T/C runs as follows: (compound 0.316 µM) 77.5% and 89.5%; (compound 1 µM) 89% and 87.9%; (compound 3.16 µM) 132% and 116%; (compound 10 µM) 149% and 164%; (compound 31.6 µM) 165% and 24.2%; (compound 100 µM) 187% and 232%. Also, the half-inhibitory concentration (IC50) (curve of compound) was > 100000 nM.
For the compound `CC(C)CC(NC(=O)CNC(=O)c1cc(Cl)ccc1Cl)B1OC(=O)CC(CC(=O)O)(C(=O)O)O1` (stereo unspecified), the viability, T/C is 102% and 105% (compound 0.000316 µM); 111% and 93.8% (compound 0.001 µM); 96.3% and 92% (compound 0.00316 µM); 93.5% and 92.7% (compound 0.01 µM); 80.1% and 72.8% (compound 0.0316 µM); 10% and 7.07% (compound 0.1 µM). For the same compound, the IC50 (curve of compound) was 50.8 nM and 47 nM.
